Test results taken from patent EP1067939B1, “USE OF STEROIDAL ALKALOID DERIVATIVES AS INHIBITORS OF HEDGEHOG PROTEIN SIGNALING PATHWAYS” (The Johns Hopkins University, priority 1998, dated 1999).
Like-named read-outs stand apart in the source and are kept apart here.

Tests used:
[1] = system: primary human lymphoblasts; assay: Cholesterol Biosynthesis Assay (sterol profiles of cultured cells); type: cell-based; conditions: five days
rat hepatoma cells = assay: Cholesterol Esterification Assay (esterification of plasma membrane cholesterol); type: cell-based
Text: Table 1. […] Table 1. Effects of synthetic and plant-derived compounds on cholesterol homeostasis. […]

endogenous Shh signaling = assay: Midline neural plate/notochord explant assay of endogenous Shh signaling; type: cell-based, chick; conditions: midline explants, two days of culture
Shh = target: T1, Shh (Mus musculus, UniProt Q62226); assay: Shh autoprocessing in stably transfected HK293 cells (immunoblot); type: cell-based; conditions: added during the 24-hour induction period; doses up to 5-fold higher than those required to completely inhibit Shh signaling
T1 construct: expressed in transfected cells; host or cells: HK293 cells, Ecdysone-Inducible Mammalian Expression System (Invitrogen)
Text: To examine potential effects of these compounds on Shh processing we utilized HK293 cells cultured in lipid-depleted serum and carrying a stable integrated construct for expression of Shh under ecdysone-inducible control (47). Shh protein expression in these cells can be induced by addition of muristerone A, an ecdysone analog.
• 1. M. Hammerschmidt, A. Brook, A. P. McMahon, Trends Genet, 13, 14-21 (1997). • 2. C. Chiang, et al., Nature, 383,407-413 (1996). • 3. Y. Tanabe, T. M. Jessell, Science 274, 1115-1123 (1996). • 4. T. P. Yamaguchi, Curr. Opin. Genet. Dev. 7, 513-518 (1997). • 5. N. Shubin, C. Tabin, S. Carroll, Nature 388, 639-648 (1997). • 6. A. E. Oro, et al., Science 276, 817-821 (1997). • 7. M. M. Cohen, K. K. Sulik, J. Craniofac. Genet. Deve. Biol. 12, 196-244 (1992). • 8. E. Belloni, et al., Nature Genet. 14, 353-356 (1996). • 9. E. Roessler, et al., Nature Genet. 14, 357-360 (1996). • 10. J. A. Porter, et al., Nature 374, 363-366 (1995). • 11. J. A. Porter, K. E. Young, P. A. Beacy, Science 274, 255-259 (1996b). • 12. J. J. Lee, et al., Science 266, 1528-1537 (1994). • 13. J. A. Porter, et al., Cell 86, 21-34 (1996a). • 14. C. Roux, Arch. Franc. Pediatr. 21, 451-464 (1964). • 15. C. Roux, C. R. Soc. Biol. 160, 1353-1357 (1966). • 16. D. B. Dehart, L. Lanoue, G. S. Tinit, K. K. Sulik, Am J. Med. Genet. 68, 328-337 (1997). • 17. M. Kraml, J. F. Bagli, D. Dvornik, Biochem. and Biophysical Res. Com. 15, 455-457 (1964). • 18. J. Avigan, D. Steinberg, H. E. Vroman, M. J. Thompson, E. Mosettig, J. Biol. Chem 235, 3123-3126 (1960). • 19. R. B. Clayton, A. N. Nelson, I. D. Frantz Jr., J. Lipid Res. 4, 166-178 (1963). • 20. J. Aufenanger, J. Pill, K. Stegmeier, F. H. Schmidt, Horm. Metabol. Res. 17, 612-613 (1986). • 21. […] G. Popjak, A. Meenean, E. J. Parish, W. D. Nes, J. Biol. Chem 264,6230-6238 (1989). • 23. H. Yoshikawa, Brain Deve. 13, 115-120 (1991). • 24. R. I. Kelley, et al., Am. J. Of Med. Gen. 66, 478-484 (1996). • 25. G. S. Tint, et al., New England Journal of Medicine 330, 107-113 (1994). • 26. T.E. Willnow, et al., Proc. Natl. Acad. Sci USA 93, 8460-8464 (1996). • 27. S. Stefansson, D. A. Chappell, K. M. Argraves, D. K. Strickland, W. S. Argraves, J. Biol. Chem. 270, 19417-19421 (1995). • 28. W. Binns, L. F. James, J. L. Shupe, G. Everett, Am. J. Vet. Res. 24, 1164-1174 (1963). • 29. R. F. Keeler, W. Binns, Teratology 1, 5-10 (1968). • 30. P. A. Beachy, et al., CSH Symp. Quant. Biol. 62, in press (1997). • 31. E. D. Carstea, et al., Science 277, 228-231 (1997). • 32. S. K. Loftus, et al., Science 277, 232-235 […]. • 33. L. V. Goodrich, L. Milenkovic, K. M. Higgins, M. P. Scott, Science 277, 1109-1113 (1997). • 34. H. Kumagai, K. T. Chun, R. D. Simoni, J. Biol. Chem. 270, 19107-19113 (1995). • 35. G. Gil, J. R. Faust, D. J. Chin, J. L. Goldstien, M. S. Brown, Cell 41, 249-258 (1985). • 36. X. Hua, A. Nohturfft, J. L. Goldstein, M. S. Brown, Cell 87, 415-426 (1996). • 37. M. S. Brown, J. L. Goldstein, Cell 89, 331-340 (1997). • 38. M. M. Bryden, C. Perry, R. F. Keeler, Teratology 8, 18-28 (1973). • 39. M. L. Omnell, F. R. P. Sim, R. F. Keeler, L. C. Harne, K. W. Brown, Teratology 42, 105-119 (1990). • 40. Fertile chick eggs (white leghorn) were placed in a humidified incubator at 37.5° C in a rotating tray for 14 hours. […] The window was taped and the eggs incubated for an additional 4 days. The embryos were dissected in phosphate buffered saline (PBS, pH 7.2).

Shh-N = assay: Intermediate neural plate explant response to exogenous Shh-N protein; type: cell-based, chick; conditions: for concentration that inhibits the repression of Pax7 expression by 2 nM Shh-N: 20 hours; for doses at which HNF3β and Isl-1 induction are completely blocked / intermediate levels at which induction of HNF3β is blocked while induction of Isl-1 is maintained or expanded: 25 nM Shh-N
[2] = read-out: Percent Inhibition (incorporation of label into cholesteryl ester*) ^3H-Cholesterol
[3] = read-out: Percent Inhibition (incorporation of label into cholesteryl ester*) ^14C-Oleic Acid

T1 sequence (Q62226 25-437): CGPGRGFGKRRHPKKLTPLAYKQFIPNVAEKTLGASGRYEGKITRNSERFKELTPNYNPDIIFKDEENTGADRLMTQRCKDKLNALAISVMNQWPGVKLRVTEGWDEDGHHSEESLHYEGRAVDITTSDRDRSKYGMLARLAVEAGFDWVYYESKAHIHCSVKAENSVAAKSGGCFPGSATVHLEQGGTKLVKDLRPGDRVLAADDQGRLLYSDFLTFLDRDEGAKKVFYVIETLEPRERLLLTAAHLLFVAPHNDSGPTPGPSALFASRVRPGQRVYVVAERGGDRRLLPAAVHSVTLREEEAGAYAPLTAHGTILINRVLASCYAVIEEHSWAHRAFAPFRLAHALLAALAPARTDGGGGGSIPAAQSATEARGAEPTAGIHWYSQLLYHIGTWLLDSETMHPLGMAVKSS

Row | Compound | Percent Sterols: Cholesterol ([1]; 0.25 µM) [%] | Percent Sterols: b. 7 Dehydrodesmosterol ([1]; 0.25 µM) [%] | Percent Sterols: c. Cholesta-7,24-dien-3ß-ol ([1]; 0.25 µM) [%] | Percent Sterols: e. Cholesta-8(14)-en-3ß-ol ([1]; 0.25 µM) [%] | Total Sterols (µg/mg protein) ([1]; 0.25 µM) | Percent Sterols: 2. C28 Sterols ([1]; 0.5 µM) [%] | Percent Sterols: 3. C29 Sterols ([1]; 0.5 µM) [%] | Percent Sterols: Cholesterol ([1]; 0.5 µM) [%] | Percent Sterols: b. 7 Dehydrodesmosterol ([1]; 0.5 µM) [%] | Percent Sterols: c. Cholesta-7,24-dien-3ß-ol ([1]; 0.5 µM) [%] | Percent Sterols: e. Cholesta-8(14)-en-3ß-ol ([1]; 0.5 µM) [%] | Total Sterols (µg/mg protein) ([1]; 0.5 µM) | Percent Sterols: 2. C28 Sterols ([1]; 1.0 µM) [%] | Percent Sterols: 3. C29 Sterols ([1]; 1.0 µM) [%] | Percent Sterols: Cholesterol ([1]; 1.0 µM) [%] | Percent Sterols: b. 7 Dehydrodesmosterol ([1]; 1.0 µM) [%] | Percent Sterols: c. Cholesta-7,24-dien-3ß-ol ([1]; 1.0 µM) [%] | Percent Sterols: e. Cholesta-8(14)-en-3ß-ol ([1]; 1.0 µM) [%] | Total Sterols (µg/mg protein) ([1]; 1.0 µM) | inhibition at 2.5 µM (rat hepatoma cells; [2]) [%] | also measured
1 | Clc1ccccc1CNC[C@H]1CC[C@H](CNCc2ccccc2Cl)CC1 [AY9944, AY 9944] | 30 | 3.5 | 1.8 | 9.7 | 7.6 | 1.1 | 3.3 | 33 | 3.0 | 1.9 | 14 | 8.3 | 2.6 | 4.6 | 34 | 1.9 | 1.6 | 20 | 8.3 | 39 | Percent Sterols: f. 7 Dehydrocholesterol ([1]; 0.25 µM): 50%; Percent Sterols: g. Lathosterol ([1]; 0.25 µM): 6.2%; Percent Sterols: f. 7 Dehydrocholesterol ([1]; 0.5 µM): 36%; Percent Sterols: g. Lathosterol ([1]; 0.5 µM): 7.3%; Percent Sterols: f. 7 Dehydrocholesterol ([1]; 1.0 µM): 16%; Percent Sterols: g. Lathosterol ([1]; 1.0 µM): 7.9%; Percent Sterols: h. C27 Sterol 1 (mw 384) ([1]; 1.0 µM): 5.3%; Percent Sterols: i. C27 Sterol 2 (mw 382) ([1]; 1.0 µM): 6.0%; inhibition at 2.5 µM (rat hepatoma cells; [3]): 20%; inhibition at 5 µM (rat hepatoma cells; [2]): 56%; inhibition at 5 µM (rat hepatoma cells; [3]): 35%; inhibition at 10 µM (rat hepatoma cells; [2]): 68%; inhibition at 10 µM (rat hepatoma cells; [3]): 51%; Higher doses that fully inhibit HNF3β and Isl-1 induction (endogenous Shh signaling): 4.0 µM; Intermediate doses that block induction of HNF3β while permitting induction of Isl-1 (endogenous Shh signaling): 0.5 µM; Shh-Np production and accumulation of unprocessed precursor (Shh): did not diminish Shh-Np production nor induce accumulation of unprocessed precursor; concentration that inhibits the repression of Pax7 expression by 2 nM Shh-N (Shh-N): 0.5 µM; doses at which HNF3β and Isl-1 induction are completely blocked (Shh-N): 2.0 µM; intermediate levels at which induction of HNF3β is blocked while induction of Isl-1 is maintained or expanded (Shh-N): 1.0 µM
2 | CCN(CC)CCOc1ccc(C(O)(Cc2ccc(Cl)cc2)c2ccc(C)cc2)cc1 (stereo not drawn) [Triparanol, triparanol] | 56 | 6.0 | 3.1 | 9.1 | 4.1 | 2.6 | 8.1 | 45 | 4.1 | 2.4 | 8.7 | 5.1 | 1.5 | 5.5 | 51 | 2.9 | 2.6 | 7.3 | 3.1 | 49 | Percent Sterols: 2. C28 Sterols ([1]; 0.25 µM): 4.4%; Percent Sterols: 3. C29 Sterols ([1]; 0.25 µM): 7.8%; Percent Sterols: a. Desmosterol ([1]; 0.25 µM): 9.1%; Percent Sterols: d. Zymosterol ([1]; 0.25 µM): 9.3%; Percent Sterols: a. Desmosterol ([1]; 0.5 µM): 8.7%; Percent Sterols: d. Zymosterol ([1]; 0.5 µM): 27%; Percent Sterols: a. Desmosterol ([1]; 1.0 µM): 6.7%; Percent Sterols: d. Zymosterol ([1]; 1.0 µM): 23%; inhibition at 2.5 µM (rat hepatoma cells; [3]): 54%; inhibition at 5 µM (rat hepatoma cells; [2]): 57%; inhibition at 5 µM (rat hepatoma cells; [3]): 65%; inhibition at 10 µM (rat hepatoma cells; [2]): 79%; inhibition at 10 µM (rat hepatoma cells; [3]): 81%; Higher doses that fully inhibit HNF3β and Isl-1 induction (endogenous Shh signaling): 1.0 µM; Intermediate doses that block induction of HNF3β while permitting induction of Isl-1 (endogenous Shh signaling): 0.25 µM; Shh-Np production and accumulation of unprocessed precursor (Shh): did not diminish Shh-Np production nor induce accumulation of unprocessed precursor; concentration that inhibits the repression of Pax7 expression by 2 nM Shh-N (Shh-N): 0.25 µM; doses at which HNF3β and Isl-1 induction are completely blocked (Shh-N): 0.5 µM; intermediate levels at which induction of HNF3β is blocked while induction of Isl-1 is maintained or expanded (Shh-N): 0.25 µM
